Experimental findings from patent US10954214B2 (Janssen Pharmaceutica NV, priority 2016, dated 2021) are described below.

By IC50 is commonly meant the concentration needed to halve the response being measured.

The test system of experiment [1] is IL10 secretion by TMD8 ABC-DLBCL cells. The experiment in a line: Human IL10 Mesoscale assay (TMD-8). The following applies: Homo sapiens, TMD8; TMD-8 cells, 24 h. Format: cell-based. The procedure:
(§1) NFKB signaling regulates the secretion of multiple cytokines, including IL6 and IL10. Secretion of the cytokines IL6 and IL10 by TMD8 or OCI-LY3 ABC-DLBCL cells was measured using a mesoscale assay. Inhibition of NFKB signaling by MALT1 or BTK inhibitors results in a decrease of IL6/10 secretion.
(§2) TMD8 or OCI-LY3 cells were propagated in RPMI-1640 (Sigma Aldrich) supplemented with 10% fetal bovine serum (HyClone), 1 mM sodium pyruvate (Invitrogen), 2 mM L-glutamine (Sigma Aldrich) and 1% PenStrep (Sigma Aldrich). Cell passage number should not exceed 30. Cells should be kept between 0.5-2.5 million cells per mL during culturing and cells should be supplemented every 2-3 days with fresh 50 μM beta-mercaptoenthanol. No beta-mercaptoethanol was used during the mesoscale assay.
(§3) For the Mesoscale assay, 100,000 TMD8 or OCI-LY3 cells were seeded per well into black-colored 96-well plates with clear bottom (Corning #3904) and test compounds were added in 9 dilution steps (1:2) ranging from 15 μM to 58.6 nM (final DMSO concentration 0.3%). DMSO control wells were used to determine the maximum signal (High Control (HC)). Treatment with the BTK inhibitor RN486 in a dose range from 30 nM to 131 pM (9 dilutions of 1:2) served as a positive control for NFKB pathway inhibition and was used to determine the maximum inhibition (Low Control (LC)). Compounds and cells were incubated for 24 h at 37° C. and 5% CO2 (assay volume is 150 μL). After 24 h of incubation 50 μL of the supernatant was transferred to a MSD plate (V-Plex Proinflammation Panel 1 (human) kit, Mesoscale (MSD)) and incubated for 2 h with vigorous shaking (600 rpm) at room temperature. Following incubation, plates were washed 3× with PBS+0.05% Tween-20 and 25 μL detection antibody solution (IL6 & IL10 antibodies in diluent 3 (MSD)) was added per well followed by 2 h of incubation with vigorous shaking (600 rpm) at room temperature. After 3× washes with PBS+0.05% Tween-20, plates were incubated with 150 μL 2× Read Buffer T and read on SECTOR imager.

Experiment [2] has as its target full-length MALT1 protein (Strep-MALT1(1-824)-His) (Homo sapiens (Human), UniProt Q9UDY8). The experiment in a line: MALT1 Biochemical Protease Assay (Ac-LRSR-AMC substrate). The following applies: 10 nM FL MALT1, 200 μM Ac-LRSR-AMC, 4 h at RT; read-out: MALT1_Biochemical activity (Ac-LRSR-amc) IC50. In a few lines:
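Full-length MALT1 pre-incubated with compounds (30 μM to 0.5 nM, 11 threefold steps) for 50 min at RT. After Ac-LRSR-AMC was added, the reaction ran 4 h at RT and AMC fluorescence was read. IC50 and Hill slope from curve fitting against no-enzyme and no-compound controls.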

The test system of experiment [3] is IL6 secretion by TMD8 ABC-DLBCL cells. The experiment in a line: Human IL6 Mesoscale assay (TMD-8). The class given is cell-based. The following applies: Homo sapiens, TMD8; TMD-8 cells, 24 h. The procedure:
as §1, §2, §3

full-length MALT1 protein (Strep-MALT1(1-824)-His), sequence (Q9UDY8 whole entry): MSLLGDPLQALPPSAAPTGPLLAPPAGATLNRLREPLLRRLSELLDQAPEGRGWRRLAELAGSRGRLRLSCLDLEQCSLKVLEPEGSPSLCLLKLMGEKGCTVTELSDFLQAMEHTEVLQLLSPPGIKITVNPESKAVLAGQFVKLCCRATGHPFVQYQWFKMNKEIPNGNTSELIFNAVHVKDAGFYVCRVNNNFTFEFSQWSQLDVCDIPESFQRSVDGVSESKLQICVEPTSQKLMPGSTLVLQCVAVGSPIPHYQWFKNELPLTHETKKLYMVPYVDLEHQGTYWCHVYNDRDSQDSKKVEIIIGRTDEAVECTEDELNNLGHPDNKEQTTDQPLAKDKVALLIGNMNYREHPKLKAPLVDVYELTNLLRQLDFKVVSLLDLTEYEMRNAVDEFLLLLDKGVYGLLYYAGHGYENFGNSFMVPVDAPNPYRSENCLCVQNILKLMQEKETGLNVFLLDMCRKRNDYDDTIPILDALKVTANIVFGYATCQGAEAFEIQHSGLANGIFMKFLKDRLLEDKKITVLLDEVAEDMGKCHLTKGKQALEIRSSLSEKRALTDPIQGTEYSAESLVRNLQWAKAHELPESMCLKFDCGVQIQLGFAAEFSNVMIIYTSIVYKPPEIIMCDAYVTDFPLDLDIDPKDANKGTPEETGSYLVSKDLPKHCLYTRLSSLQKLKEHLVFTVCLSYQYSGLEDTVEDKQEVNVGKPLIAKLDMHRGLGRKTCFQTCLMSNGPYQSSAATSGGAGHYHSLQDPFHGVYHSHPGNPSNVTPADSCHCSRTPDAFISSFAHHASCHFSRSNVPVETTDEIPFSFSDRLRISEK

With `N#Cc1cc(NC(=O)c2cnn(-c3cc(Cl)nc4ccccc34)c2C(F)(F)F)cnc1-n1nccn1` [Cpd 220, 1-(2-chloroquinolin-4-yl)-N-(5-cyano-6-(2H-1,2,3-triazol-2-yl)pyridin-3-yl)-5-(trifluoromethyl)-1H-pyrazole-4-carboxamide], the results for the IC50 in experiment [1], in experiment [2] and in experiment [3] were 468 nM, 2140 nM and 851 nM, respectively.
Regarding `O=C(Nc1cnc(-n2nccn2)c(Cl)c1)c1cnn(-c2ncnc3[nH]ncc23)c1C(F)(F)F` [Cpd 222, N-(5-chloro-6-(2H-1,2,3-triazol-2-yl)pyridin-3-yl)-1-(1H-pyrazolo[3,4-d]pyrimidin-4-yl)-5-(trifluoromethyl)-1H-pyrazole-4-carboxamide], the half-maximal inhibitory concentration (IC50) is 575 nM in experiment [1], 1700 nM in experiment [2] and 3310 nM in experiment [3].
As to `N#Cc1cc(NC(=O)c2cnn(-c3ccnc4ccncc34)c2C(F)(F)F)cnc1-n1nccn1` [Cpd 223, N-(5-cyano-6-(2H-1,2,3-triazol-2-yl)pyridin-3-yl)-1-(1,6-naphthyridin-4-yl)-5-(trifluoromethyl)-1H-pyrazole-4-carboxamide], the concentration for half-maximal inhibition (IC50) in experiment [1] amounted to 1180 nM; in experiment [2], 1700 nM; in experiment [3], 759 nM.
`CN1CCN(c2ncc(NC(=O)c3cnn(-c4cccc5ncccc45)c3C(F)(F)F)cc2C#N)CC1` [Cpd 224, N-(5-cyano-6-(4-methylpiperazin-1-yl)pyridin-3-yl)-1-(quinolin-5-yl)-5-(trifluoromethyl)-1H-pyrazole-4-carboxamide]: the IC50 was 832 nM in experiment [1], 1660 nM in experiment [2] and 575 nM in experiment [3].
As to `Cn1ncc2cc(NC(=O)c3cnn(-c4cccc5ncccc45)c3C(F)(F)F)cnc21` [Cpd 225, N-(1-methyl-1H-pyrazolo[3,4-b]pyridin-5-yl)-1-(quinolin-5-yl)-5-(trifluoromethyl)-1H-pyrazole-4-carboxamide], the IC50 in experiment [1] is 794 nM; in experiment [2], 1230 nM; in experiment [3], 407 nM.
Take `Cn1ccc2c(-n3ncc(C(=O)Nc4cnc(-n5nccn5)c(Cl)c4)c3C(F)(F)F)cccc2c1=O` [Cpd 226, N-(5-chloro-6-(2H-1,2,3-triazol-2-yl)pyridin-3-yl)-1-(2-methyl-1-oxo-1,2-dihydroisoquinolin-5-yl)-5-(trifluoromethyl)-1H-pyrazole-4-carboxamide]: the figures for the IC50 in experiment [1], in experiment [2] and in experiment [3] were 93 nM, 1200 nM and 257 nM, respectively.
The like results for `N#Cc1cnnn1-c1ncc(NC(=O)c2cnn(-c3cccc4ncccc34)c2C(F)(F)F)cc1Cl` [Cpd 227, N-(5-chloro-6-(5-cyano-1H-1,2,3-triazol-1-yl)pyridin-3-yl)-1-(quinolin-5-yl)-5-(trifluoromethyl)-1H-pyrazole-4-carboxamide] were, in that order, 550 nM, 1150 nM and 6460 nM.
Take `O=C(O)c1cnn(-c2ccc(NC(=O)c3cnn(-c4cccc5ncccc45)c3C(F)(F)F)cc2Cl)n1` [Cpd 228, 2-(2-chloro-4-(1-(quinolin-5-yl)-5-(trifluoromethyl)-1H-pyrazole-4-carboxamido)phenyl)-2H-1,2,3-triazole-4-carboxylic acid]: the IC50 in experiment [1] stood at 813 nM; in experiment [2] it was 1120 nM; in experiment [3], 692 nM.
`O=C(Nc1cnc2[nH]ncc2c1)c1cnn(-c2cccc3ncccc23)c1C(F)(F)F` [Cpd 229, N-(1H-pyrazolo[3,4-b]pyridin-5-yl)-1-(quinolin-5-yl)-5-(trifluoromethyl)-1H-pyrazole-4-carboxamide]: the results for the IC50 in experiment [1], in experiment [2] and in experiment [3] were 331 nM, 1120 nM and 912 nM, respectively.
In the case of `N#Cc1cc(NC(=O)c2cnn(-c3cccn4ccnc34)c2C(F)(F)F)cnc1-n1nccn1` [Cpd 230, N-(5-cyano-6-(2H-1,2,3-triazol-2-yl)pyridin-3-yl)-1-(imidazo[1,2-a]pyridin-8-yl)-5-(trifluoromethyl)-1H-pyrazole-4-carboxamide], the IC50 in experiment [1] worked out at 759 nM; in experiment [2], 1070 nM; in experiment [3], 1410 nM.
For `O=C(Nc1cnc(-n2nccn2)c(Cl)c1)c1cnn(-c2cccc3snnc23)c1C(F)(F)F` [Cpd 231, 1-(benzo[d][1,2,3]thiadiazol-4-yl)-N-(5-chloro-6-(2H-1,2,3-triazol-2-yl)pyridin-3-yl)-5-(trifluoromethyl)-1H-pyrazole-4-carboxamide], the IC50 in experiment [1] was found to be 851 nM; in experiment [2], 891 nM; in experiment [3], 724 nM.
`O=C(O)c1cn(-c2ncc(NC(=O)c3cnn(-c4cccc5ncccc45)c3C(F)(F)F)cc2Cl)nn1` [Cpd 234, 1-(3-chloro-5-(1-(quinolin-5-yl)-5-(trifluoromethyl)-1H-pyrazole-4-carboxamido)pyridin-2-yl)-1H-1,2,3-triazole-4-carboxylic acid]: the IC50 in experiment [1] stood at 141 nM; in experiment [2], 851 nM; in experiment [3] it was 263 nM.
`COc1cc(NC(=O)c2cnn(-c3cccc4ncccc34)c2C(F)(F)F)cnc1-n1ccnn1` [Cpd 235, N-(5-methoxy-6-(1H-1,2,3-triazol-1-yl)pyridin-3-yl)-1-(quinolin-5-yl)-5-(trifluoromethyl)-1H-pyrazole-4-carboxamide]: the half-inhibitory concentration (IC50) in experiment [1] came to 1120 nM; in experiment [2], 776 nM; in experiment [3], 708 nM.
The like results for `N#Cc1cc(NC(=O)c2cnn(-c3cccc4ncccc34)c2C(F)(F)F)ccc1C(=O)O` [Cpd 237, 2-cyano-4-(1-(quinolin-5-yl)-5-(trifluoromethyl)-1H-pyrazole-4-carboxamido)benzoic acid] were, in that order, 182 nM, 676 nM and 275 nM.
As to `Cn1ncc2c(-n3ncc(C(=O)Nc4cnc(-n5nccn5)c(C#N)c4)c3C(F)(F)F)cccc21` [Cpd 239, N-(5-cyano-6-(2H-1,2,3-triazol-2-yl)pyridin-3-yl)-1-(1-methyl-1H-indazol-4-yl)-5-(trifluoromethyl)-1H-pyrazole-4-carboxamide], the IC50 in experiment [1] came out at 562 nM; in experiment [2], 661 nM; in experiment [3], 324 nM.
With `Cc1cc(NC(=O)c2cnn(-c3cccc4ncccc34)c2C(F)(F)F)cnc1-c1nnnn1C` [Cpd 240], the figures for the half-maximal inhibitory concentration (IC50) in experiment [1], in experiment [2] and in experiment [3] were 135 nM, 631 nM and 398 nM, respectively.
For `Cc1nc2c(-n3ncc(C(=O)Nc4cnc(-n5nccn5)c(C#N)c4)c3C(F)(F)F)cccc2s1` [Cpd 245, N-(5-cyano-6-(2H-1,2,3-triazol-2-yl)pyridin-3-yl)-1-(2-methylbenzo[d]thiazol-4-yl)-5-(trifluoromethyl)-1H-pyrazole-4-carboxamide], the IC50 is 141 nM in experiment [1], 389 nM in experiment [2] and 708 nM in experiment [3].
On to `Cc1nc2cccc(-n3ncc(C(=O)Nc4cnc(-n5nccn5)c(C#N)c4)c3C(F)(F)F)c2s1` [Cpd 247, N-(5-cyano-6-(2H-1,2,3-triazol-2-yl)pyridin-3-yl)-1-(2-methylbenzo[d]thiazol-7-yl)-5-(trifluoromethyl)-1H-pyrazole-4-carboxamide], for which the figures for the IC50 in experiment [1], in experiment [2] and in experiment [3] were 1780 nM, 347 nM and over 1510 nM, respectively.
